From ChEMBL document CHEMBL4507302, “Data for DCP probe TP-020” (2021)

Assays:
[1] = molecular target: TGF-beta receptor type-2 (Homo sapiens) (UniProt P37173); conditions: Compound concentration 1000.0 nM
[2] = molecular target: Dual specificity mitogen-activated protein kinase kinase 6 (Homo sapiens) (UniProt P52564); conditions: Compound concentration 1000.0 nM
[3] = molecular target: Mitogen-activated protein kinase kinase kinase 15 (Homo sapiens) (UniProt Q6ZN16); conditions: Compound concentration 1000.0 nM
[4] = molecular target: Tyrosine-protein kinase ABL1 (Homo sapiens) (UniProt P00519); conditions: Compound concentration 1000.0 nM
[5] = tested on: Tyrosine-protein kinase ABL1 (Homo sapiens), P00519 [T315I]; conditions: Compound concentration 1000.0 nM
[6] = molecular target: Rho-associated protein kinase 2 (Homo sapiens) (UniProt O75116); conditions: Compound concentration 1000.0 nM
[7] = molecular target: Phosphorylase b kinase regulatory subunit alpha, liver isoform (Homo sapiens) (UniProt P46019); conditions: Compound concentration 1000.0 nM
[8] = molecular target: Non-receptor tyrosine-protein kinase TNK1 (Homo sapiens) (UniProt Q13470); conditions: Compound concentration 1000.0 nM
[9] = molecular target: Calcium/calmodulin-dependent protein kinase type IV (Homo sapiens) (UniProt Q16566); conditions: Compound concentration 1000.0 nM
[10] = molecular target: Calcium/calmodulin-dependent protein kinase type 1 (Homo sapiens) (UniProt Q14012); conditions: Compound concentration 1000.0 nM
Chain of Calcium/calmodulin-dependent protein kinase type 1 (Homo sapiens) (Q14012 whole entry, looked up): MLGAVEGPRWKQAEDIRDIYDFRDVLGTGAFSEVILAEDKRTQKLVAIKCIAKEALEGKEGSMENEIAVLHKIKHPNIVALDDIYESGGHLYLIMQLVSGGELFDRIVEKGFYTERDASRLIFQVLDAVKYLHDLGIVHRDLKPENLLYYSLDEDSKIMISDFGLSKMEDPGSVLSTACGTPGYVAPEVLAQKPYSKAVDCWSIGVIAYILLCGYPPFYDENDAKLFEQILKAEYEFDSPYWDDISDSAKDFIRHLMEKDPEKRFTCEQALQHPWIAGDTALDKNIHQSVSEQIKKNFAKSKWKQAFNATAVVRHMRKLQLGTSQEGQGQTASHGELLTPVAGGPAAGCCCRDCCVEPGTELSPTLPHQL

[11] = molecular target: NUAK family SNF1-like kinase 1 (Homo sapiens) (UniProt O60285); conditions: Compound concentration 1000.0 nM
[12] = tested on: Phosphatidylinositol 4,5-bisphosphate 3-kinase catalytic subunit alpha isoform (Homo sapiens), P42336 [Q546K]; conditions: Compound concentration 1000.0 nM
[13] = molecular target: Casein kinase I isoform delta (Homo sapiens) (UniProt P48730); conditions: Compound concentration 1000.0 nM
[14] = tested on: Tyrosine-protein kinase ABL1 (Homo sapiens), P00519 [H396P]; conditions: Compound concentration 1000.0 nM
[15] = molecular target: Serine/threonine-protein kinase PAK 4 (Homo sapiens) (UniProt O96013); conditions: Compound concentration 1000.0 nM
[16] = tested on: Phosphatidylinositol 4,5-bisphosphate 3-kinase catalytic subunit alpha isoform (Homo sapiens), P42336 [H1047Y]; conditions: Compound concentration 1000.0 nM
[17] = tested on: Tyrosine-protein kinase ABL1 (Homo sapiens), P00519 [Q252H]; conditions: Compound concentration 1000.0 nM
[18] = molecular target: Mitogen-activated protein kinase 6 (Homo sapiens) (UniProt Q16659); conditions: Compound concentration 1000.0 nM
[19] = molecular target: D(1A) dopamine receptor (Homo sapiens) (UniProt P21728); conditions: Compound concentration 10.0 uM
[20] = molecular target: Mitogen-activated protein kinase 14 (Homo sapiens) (UniProt Q16539); conditions: Compound concentration 1000.0 nM
[21] = molecular target: Calcium/calmodulin-dependent protein kinase type II subunit delta (Homo sapiens) (UniProt Q13557); conditions: Compound concentration 1000.0 nM
[22] = molecular target: Serine/threonine-protein kinase Nek2 (Homo sapiens) (UniProt P51955); conditions: Compound concentration 1000.0 nM
[23] = molecular target: Myosin-IIIa (Homo sapiens) (UniProt Q8NEV4); conditions: Compound concentration 1000.0 nM
[24] = molecular target: Cyclin-dependent kinase 4 (Homo sapiens) (UniProt P11802); conditions: Compound concentration 1000.0 nM
[25] = tested on: Hepatocyte growth factor receptor (Homo sapiens), P08581 [M1250T]; conditions: Compound concentration 1000.0 nM
[26] = molecular target: Receptor-interacting serine/threonine-protein kinase 4 (Homo sapiens) (UniProt P57078); conditions: Compound concentration 1000.0 nM
[27] = molecular target: Tyrosine-protein kinase FRK (Homo sapiens) (UniProt P42685); conditions: Compound concentration 1000.0 nM
Chain of Tyrosine-protein kinase FRK (Homo sapiens) (P42685 whole entry): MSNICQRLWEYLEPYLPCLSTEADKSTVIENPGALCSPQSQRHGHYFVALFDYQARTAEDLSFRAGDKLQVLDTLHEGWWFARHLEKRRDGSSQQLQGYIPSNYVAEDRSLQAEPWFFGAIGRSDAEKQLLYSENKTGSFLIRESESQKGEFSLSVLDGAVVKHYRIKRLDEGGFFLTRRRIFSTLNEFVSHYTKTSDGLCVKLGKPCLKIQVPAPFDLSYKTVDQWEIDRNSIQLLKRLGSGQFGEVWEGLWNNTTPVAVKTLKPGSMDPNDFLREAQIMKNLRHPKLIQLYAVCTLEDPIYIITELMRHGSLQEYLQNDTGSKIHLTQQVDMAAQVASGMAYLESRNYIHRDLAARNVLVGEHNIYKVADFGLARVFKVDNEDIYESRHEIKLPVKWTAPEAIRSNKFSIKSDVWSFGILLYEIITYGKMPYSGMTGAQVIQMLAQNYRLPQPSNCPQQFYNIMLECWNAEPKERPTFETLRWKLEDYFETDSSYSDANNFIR

[28] = molecular target: Mitogen-activated protein kinase kinase kinase 19 (Homo sapiens) (UniProt Q56UN5); conditions: Compound concentration 1000.0 nM
[29] = molecular target: Mitogen-activated protein kinase kinase kinase kinase 1 (Homo sapiens) (UniProt Q92918); conditions: Compound concentration 1000.0 nM
Chain of Mitogen-activated protein kinase kinase kinase kinase 1 (Homo sapiens) (Q92918 whole entry, looked up): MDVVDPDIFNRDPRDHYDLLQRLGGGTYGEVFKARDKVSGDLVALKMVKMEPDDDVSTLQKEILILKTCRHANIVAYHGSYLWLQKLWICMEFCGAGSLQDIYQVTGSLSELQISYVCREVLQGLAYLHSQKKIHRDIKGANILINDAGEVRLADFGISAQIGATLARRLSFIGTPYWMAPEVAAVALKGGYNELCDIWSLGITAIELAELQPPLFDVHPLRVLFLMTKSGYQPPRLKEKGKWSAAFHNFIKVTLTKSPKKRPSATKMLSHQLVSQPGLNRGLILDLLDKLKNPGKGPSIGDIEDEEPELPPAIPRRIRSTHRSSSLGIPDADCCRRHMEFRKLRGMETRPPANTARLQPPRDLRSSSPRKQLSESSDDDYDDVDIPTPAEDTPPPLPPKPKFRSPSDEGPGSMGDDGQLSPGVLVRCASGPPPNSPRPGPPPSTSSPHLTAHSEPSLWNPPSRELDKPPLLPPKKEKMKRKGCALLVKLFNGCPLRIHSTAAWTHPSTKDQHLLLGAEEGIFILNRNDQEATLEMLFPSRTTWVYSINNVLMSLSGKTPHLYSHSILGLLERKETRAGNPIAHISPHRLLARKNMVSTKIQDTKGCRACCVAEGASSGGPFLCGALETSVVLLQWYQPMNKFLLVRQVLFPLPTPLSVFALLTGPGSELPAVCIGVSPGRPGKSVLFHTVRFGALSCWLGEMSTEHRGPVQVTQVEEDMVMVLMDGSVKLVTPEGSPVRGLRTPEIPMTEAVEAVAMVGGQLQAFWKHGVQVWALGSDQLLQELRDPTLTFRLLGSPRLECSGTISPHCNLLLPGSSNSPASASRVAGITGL

[30] = molecular target: Tyrosine-protein kinase ABL2 (Homo sapiens) (UniProt P42684); conditions: Compound concentration 1000.0 nM
Chain of Tyrosine-protein kinase ABL2 (Homo sapiens) (P42684 whole entry): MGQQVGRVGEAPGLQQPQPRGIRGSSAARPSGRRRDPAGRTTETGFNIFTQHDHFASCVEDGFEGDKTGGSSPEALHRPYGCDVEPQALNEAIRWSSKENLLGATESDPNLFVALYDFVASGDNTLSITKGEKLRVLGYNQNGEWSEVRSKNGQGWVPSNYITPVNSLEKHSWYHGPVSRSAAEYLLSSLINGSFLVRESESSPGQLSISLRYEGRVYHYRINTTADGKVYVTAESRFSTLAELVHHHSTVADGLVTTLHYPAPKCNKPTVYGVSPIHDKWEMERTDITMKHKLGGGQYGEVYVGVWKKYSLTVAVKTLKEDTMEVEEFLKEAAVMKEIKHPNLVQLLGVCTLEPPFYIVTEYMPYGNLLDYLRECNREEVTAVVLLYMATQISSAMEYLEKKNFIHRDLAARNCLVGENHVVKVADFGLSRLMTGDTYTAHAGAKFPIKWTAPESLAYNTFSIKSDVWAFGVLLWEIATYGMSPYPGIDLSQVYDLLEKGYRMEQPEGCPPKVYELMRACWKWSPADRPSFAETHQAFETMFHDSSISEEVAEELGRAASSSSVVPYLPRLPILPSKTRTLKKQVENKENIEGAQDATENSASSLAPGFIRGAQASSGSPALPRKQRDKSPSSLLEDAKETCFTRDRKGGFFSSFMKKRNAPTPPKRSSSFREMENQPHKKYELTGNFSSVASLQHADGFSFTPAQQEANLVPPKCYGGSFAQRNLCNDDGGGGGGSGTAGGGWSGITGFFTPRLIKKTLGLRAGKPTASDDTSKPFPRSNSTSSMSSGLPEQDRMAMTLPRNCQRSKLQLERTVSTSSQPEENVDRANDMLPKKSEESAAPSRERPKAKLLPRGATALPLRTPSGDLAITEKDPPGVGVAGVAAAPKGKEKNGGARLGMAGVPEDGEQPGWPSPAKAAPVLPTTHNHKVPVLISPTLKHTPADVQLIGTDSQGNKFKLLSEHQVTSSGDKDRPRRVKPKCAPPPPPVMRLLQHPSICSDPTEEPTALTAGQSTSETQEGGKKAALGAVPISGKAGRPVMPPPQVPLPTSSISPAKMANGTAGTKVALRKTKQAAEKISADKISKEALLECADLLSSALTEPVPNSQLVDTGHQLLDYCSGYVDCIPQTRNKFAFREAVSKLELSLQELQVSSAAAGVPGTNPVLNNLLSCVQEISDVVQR

[31] = molecular target: RAF proto-oncogene serine/threonine-protein kinase (Homo sapiens) (UniProt P04049); conditions: Compound concentration 1000.0 nM
[32] = molecular target: Protein kinase C theta type (Homo sapiens) (UniProt Q04759); conditions: Compound concentration 1000.0 nM
[33] = molecular target: Cyclin-dependent kinase 19 (Homo sapiens) (UniProt Q9BWU1); conditions: Compound concentration 1000.0 nM
Chain of Cyclin-dependent kinase 19 (Homo sapiens) (Q9BWU1 whole entry): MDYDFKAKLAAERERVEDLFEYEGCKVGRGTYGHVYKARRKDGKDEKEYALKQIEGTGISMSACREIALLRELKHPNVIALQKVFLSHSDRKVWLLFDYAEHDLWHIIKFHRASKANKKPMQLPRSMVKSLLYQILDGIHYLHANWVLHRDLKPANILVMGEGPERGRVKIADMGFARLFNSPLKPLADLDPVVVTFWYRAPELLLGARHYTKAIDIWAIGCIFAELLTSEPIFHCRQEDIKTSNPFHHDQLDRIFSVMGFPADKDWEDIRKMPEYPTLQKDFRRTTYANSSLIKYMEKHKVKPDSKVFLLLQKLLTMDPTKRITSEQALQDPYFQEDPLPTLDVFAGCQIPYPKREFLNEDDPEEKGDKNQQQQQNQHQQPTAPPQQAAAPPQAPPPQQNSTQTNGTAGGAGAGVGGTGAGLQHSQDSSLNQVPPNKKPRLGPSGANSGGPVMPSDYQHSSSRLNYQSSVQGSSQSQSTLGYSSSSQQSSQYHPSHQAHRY

[34] = molecular target: Ribosomal protein S6 kinase alpha-2 (Homo sapiens) (UniProt Q15349); conditions: Compound concentration 1000.0 nM
Chain of Ribosomal protein S6 kinase alpha-2 (Homo sapiens) (Q15349 whole entry): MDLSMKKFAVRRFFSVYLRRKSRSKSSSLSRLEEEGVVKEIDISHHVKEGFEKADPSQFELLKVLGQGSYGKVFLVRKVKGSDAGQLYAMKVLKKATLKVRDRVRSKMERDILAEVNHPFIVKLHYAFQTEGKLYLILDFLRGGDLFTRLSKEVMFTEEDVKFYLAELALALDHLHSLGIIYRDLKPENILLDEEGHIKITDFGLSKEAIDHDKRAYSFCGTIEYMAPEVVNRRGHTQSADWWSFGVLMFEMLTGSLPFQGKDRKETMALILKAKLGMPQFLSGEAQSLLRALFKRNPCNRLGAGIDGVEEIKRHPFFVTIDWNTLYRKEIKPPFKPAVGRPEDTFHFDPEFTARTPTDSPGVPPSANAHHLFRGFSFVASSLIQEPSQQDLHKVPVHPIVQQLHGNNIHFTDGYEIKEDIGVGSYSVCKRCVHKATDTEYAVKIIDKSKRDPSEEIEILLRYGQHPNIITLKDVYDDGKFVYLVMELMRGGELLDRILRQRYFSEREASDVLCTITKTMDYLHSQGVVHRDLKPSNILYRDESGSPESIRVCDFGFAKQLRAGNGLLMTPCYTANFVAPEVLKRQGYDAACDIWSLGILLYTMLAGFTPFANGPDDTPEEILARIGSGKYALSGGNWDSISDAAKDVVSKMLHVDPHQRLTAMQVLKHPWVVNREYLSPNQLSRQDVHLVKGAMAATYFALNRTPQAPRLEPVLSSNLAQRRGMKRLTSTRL

[35] = molecular target: SRSF protein kinase 1 (Homo sapiens) (UniProt Q96SB4); conditions: Compound concentration 1000.0 nM
[36] = molecular target: Serine/threonine-protein kinase Nek4 (Homo sapiens) (UniProt P51957); conditions: Compound concentration 1000.0 nM
Chain of Serine/threonine-protein kinase Nek4 (Homo sapiens) (P51957 whole entry, looked up): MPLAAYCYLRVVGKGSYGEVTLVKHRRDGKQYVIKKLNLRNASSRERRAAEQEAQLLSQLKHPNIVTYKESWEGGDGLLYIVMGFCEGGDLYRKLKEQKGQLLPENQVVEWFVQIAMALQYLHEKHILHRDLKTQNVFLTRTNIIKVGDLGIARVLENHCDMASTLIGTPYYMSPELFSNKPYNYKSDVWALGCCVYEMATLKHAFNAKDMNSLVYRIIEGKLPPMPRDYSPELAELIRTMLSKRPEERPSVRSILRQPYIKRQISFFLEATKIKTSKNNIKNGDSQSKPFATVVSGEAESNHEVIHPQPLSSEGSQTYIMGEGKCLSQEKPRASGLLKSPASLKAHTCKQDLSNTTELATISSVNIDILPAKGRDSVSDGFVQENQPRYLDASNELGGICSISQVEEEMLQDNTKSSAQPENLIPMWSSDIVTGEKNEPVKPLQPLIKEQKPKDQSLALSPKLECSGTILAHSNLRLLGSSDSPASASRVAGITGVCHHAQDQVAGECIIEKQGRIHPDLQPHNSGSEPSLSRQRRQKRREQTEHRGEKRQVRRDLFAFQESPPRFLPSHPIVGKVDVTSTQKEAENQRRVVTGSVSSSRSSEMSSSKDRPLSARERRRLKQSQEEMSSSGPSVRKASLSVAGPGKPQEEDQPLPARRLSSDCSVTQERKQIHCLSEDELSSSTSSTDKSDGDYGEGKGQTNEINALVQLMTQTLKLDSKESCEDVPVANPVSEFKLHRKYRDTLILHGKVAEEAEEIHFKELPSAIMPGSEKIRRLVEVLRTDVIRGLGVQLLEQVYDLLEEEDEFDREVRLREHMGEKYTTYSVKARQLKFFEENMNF

[37] = molecular target: Myosin light chain kinase (Homo sapiens) (UniProt Q32MK0); conditions: Compound concentration 1000.0 nM
[38] = molecular target: Serine/threonine-protein kinase 3 (Homo sapiens) (UniProt Q13188); conditions: Compound concentration 1000.0 nM
[39] = molecular target: Histamine H1 receptor (Homo sapiens) (UniProt P35367); conditions: Compound concentration 10.0 uM
[40] = molecular target: GABA-A receptor; anion channel (Rattus norvegicus) (UniProt O09028+P15431+P18506+P18508+P19969+P20236+P23574+P23576+P28471+P28473+P30191+P62813+P63079+P63138+Q91ZM7+Q9ES14); conditions: Compound concentration 10.0 uM
[41] = molecular target: Cyclin-dependent kinase 14 (Homo sapiens) (UniProt O94921); conditions: Compound concentration 1000.0 nM
[42] = molecular target: Mitogen-activated protein kinase kinase kinase 4 (Homo sapiens) (UniProt Q9Y6R4); conditions: Compound concentration 1000.0 nM
[43] = molecular target: Cyclin-dependent kinase 15 (Homo sapiens) (UniProt Q96Q40); conditions: Compound concentration 1000.0 nM
[44] = molecular target: D(1B) dopamine receptor (Homo sapiens) (UniProt P21918); conditions: Compound concentration 10.0 uM

Nc1cnc(N2CCc3cc(S(=O)(=O)Nc4c(F)cc(Cl)cc4F)cc(N4CCCC4=O)c32)nc1
inactive: residual activity [1] 92% | residual activity [2] 71% | residual activity [3] 100% | residual activity [4] 97% | residual activity [5] 98% | residual activity [6] 100% | residual activity [7] 100% | residual activity [8] 100% | residual activity [9] 96% | residual activity [10] 88% | residual activity [11] 100% | residual activity [12] 78% | residual activity [13] 98% | residual activity [14] 94% | residual activity [15] 89% | residual activity [16] 100% | residual activity [17] 100% | residual activity [18] 100% | inhibition [19] -8.35% | residual activity [20] 100% | residual activity [21] 100% | residual activity [22] 89% | residual activity [23] 77% | residual activity [24] 97% | residual activity [25] 100% | residual activity [26] 76% | residual activity [27] 62% | residual activity [28] 100% | residual activity [29] 83% | residual activity [30] 95% | residual activity [31] 79% | residual activity [32] 89% | residual activity [33] 100% | residual activity [34] 88% | residual activity [35] 81% | residual activity [36] 97% | residual activity [37] 100% | residual activity [38] 96% | inhibition [39] -2.69% | inhibition [40] -1.96% | residual activity [41] 100% | residual activity [42] 85% | residual activity [43] 80% | inhibition [44] 7.88%

Cn1nc(C(F)(F)F)cc1-c1cnc(N2CCc3cc(S(=O)(=O)Nc4c(F)cc(Cl)cc4F)cc(N4CCCC4=O)c32)nc1 [TP-020]
inactive: residual activity [1] 81% | residual activity [2] 100% | residual activity [3] 81% | residual activity [4] 95% | residual activity [5] 82% | residual activity [6] 85% | residual activity [7] 96% | residual activity [8] 100% | residual activity [9] 100% | residual activity [10] 95% | residual activity [11] 89% | residual activity [12] 82% | residual activity [13] 94% | residual activity [14] 81% | residual activity [15] 100% | residual activity [16] 76% | residual activity [17] 85% | residual activity [18] 100% | inhibition [19] -6.95% | residual activity [20] 100% | residual activity [21] 99% | residual activity [22] 100% | residual activity [23] 100% | residual activity [24] 81% | residual activity [25] 94% | residual activity [26] 67% | residual activity [27] 83% | residual activity [28] 82% | residual activity [29] 100% | residual activity [30] 100% | residual activity [31] 100% | residual activity [32] 100% | residual activity [33] 100% | residual activity [34] 100% | residual activity [35] 77% | residual activity [36] 72% | residual activity [37] 84% | residual activity [38] 90% | inhibition [39] 10.2% | inhibition [40] 35.9% | residual activity [41] 100% | residual activity [42] 100% | residual activity [43] 100% | inhibition [44] 42.5%
